Like-named read-outs stand apart in the source and are kept apart here. No end group written: not given here.
What was measured:
Caski cells [1] = experiment: Fluorescent quantitation of FITC-labeled peptide uptake; format: cell-based, human; conditions: for intracellular fluorescence intensity of FITC-labeled CPPs with GSM combination: Caski cells co-incubated with glucose, sucrose and manntiol, fluorescence quantitation (Figure 6A)
Protocol: Before the 10 μM FITC-labeled peptides addition, cells were washed with phosphate-buffered saline (0.1 M PBS, pH 7.4) for 3 times. After internalization for 1 h at 37°C, cells were washed 3 times with PBS, and then observed under fluorescence microscope (Nikon, Japan) using a bandpass filter (detects FITC). In some experiments, cell was pretreated with 5% (v/v %) of DMSO in serum-free medium.
Intracellular fluorescence intensity of cells can be quantified using quantitative analysis by Multimode Spectrophotometry (Tecan 2000, Mannedorf, Switzerland). Briefly, after peptide incubation procedure shown above, cells were washed 3 times with PBS, lysed by 0.1 M NaOH at room temperature, and then centrifuged at 14000 g for 5 min. […] The fluorescence of cellular uptake is expressed as fluorescence intensity per mg of total cellular protein (protein concentration were determined using Bradford protein assay). All experiments were repeated at least three times and always performed in triplicate.

Caski cells [2] = experiment: MTT cell viability analysis; conditions: glycerol (30 mM) and glycine (15 mM) together
Protocol: MTT assay was used to assess cell viability. Briefly, cells (4 × 10^4 cells) were seeded in one well of 96-well plates and cultivated in an RPMI-1640 medium for 24 h. Cells were washed with PBS and then adding different concentrations of supplements with a serum-free medium, incubated for 2 h at 37°C and washed with PBS twice, then incubated with fresh medium containing serum for 24 h. Then, 20 μl of MTT (5.5 mg/ml) in serum-free media was added directly to each well and incubated for 4 h at 37°C. Removing the supernatant and then adding 100 μl of DMSO, and incubated at 37°C for another 30 min before quantifying the absorbance at 550 nm.

HepG2 cells = experiment: Fluorescent quantitation of FITC-labeled peptide uptake; conditions: HepG2 cells co-incubated with glucose, sucrose and manntiol; fluorescence quantitation (Figure 6B)
Protocol: (§1) HeLa, Siha, Caski, HepG2, A549 or B16 cells (density: 5 × 10^5 cells per well) were seeded into 24-well-plates (Greiner, Germany) and cultivated in RPMI-1640 medium for 24 h. Before the 10 μM FITC-labeled peptides addition, cells were washed with phosphate-buffered saline (0.1 M PBS, pH 7.4) for 3 times. After internalization for 1 h at 37°C, cells were washed 3 times with PBS, and then observed under fluorescence microscope (Nikon, Japan) using a bandpass filter (detects FITC). In some experiments, cell was pretreated with 5% (v/v %) of DMSO in serum-free medium.
Intracellular fluorescence intensity of cells can be quantified using quantitative analysis by Multimode Spectrophotometry (Tecan 2000, Mannedorf, Switzerland). Briefly, after peptide incubation procedure shown above, cells were washed 3 times with PBS, lysed by 0.1 M NaOH at room temperature, and then centrifuged at 14000 g for 5 min. The fluorescence intensity of the supernatant was measured at the wavelength of 494/518 nm in a Multimode Microplate Reader. The fluorescence of cellular uptake is expressed as fluorescence intensity per mg of total cellular protein (protein concentration were determined using Bradford protein assay). All experiments were repeated at least three times and always performed in triplicate.

A549 and Siha cells = format: cell-based, human
Protocol: as §1

Caski cells [3] = test system: Caski cells
Protocol: as §1

[4] = glycerol and glycine combination or separately, fluorescence quantitation (Figure 4D)

OCC(O)CO [glycerol]
penetration enhancing activity on TAT-FITC (Caski cells [1]; [4]): no significant penetration enhancing activity

NCC(=O)O [glycine]
cell viability (MTT) with glycerol and glycine addition during GSM treatment (Caski cells [2]; at 24 h (Figure 4A)): rescue the cell viability
cell viability (MTT) with glycerol and glycine addition during GSM treatment (Caski cells [2]; at 48 h (Figure 4B)): rescue the cell viability
cell viability (MTT) with glycerol and glycine addition during GSM treatment (Caski cells [2]; at 72 h (Figure 4C)): rescue the cell viability
penetration enhancing activity on TAT-FITC (Caski cells [1]): no significant penetration enhancing activity

KIPLPRFKLKCIFCKKRRKR [hPP10, newly found human-derived CPP labeled with FITC]
intracellular fluorescence intensity of FITC-labeled CPPs with GSM combination (Caski cells [1]): facilitate the penetration efficiency

RKDRRGGEMMKQKRQRE [NLS]
intracellular fluorescence intensity of FITC-labeled CPPs with GSM combination (Caski cells [1]): facilitate the penetration efficiency
intracellular fluorescence intensity of FITC-labeled CPPs with GSM combination (HepG2 cells): facilitate the penetration efficiency

YGRKKRRQRRRK [TAT-FITC]
TAT uptake with glucose and manntiol in different cell lines (A549 and Siha cells): enhance the penetration of TAT uptake
TAT penetration efficiency with galactose treatment (Caski cells [3]): partially enhance the penetration efficiency
enhancement of TAT-FITC penetration by chloroquine (Caski cells [3]): limited
TAT penetration efficiency at different temperatures (Caski cells [1]; 4 and 37°C, GSM combination (Figure 7B)): decreased at lower temperatures
TAT penetration with GSM combination, effect of washing method (Caski cells [1]; PBS washing vs 0.025% trypsin washing (Supplementary Figure S3)): no difference between PBS washing and 0.025% trypsin washing method
TAT-FITC uptake with glucose and manntiol combination (Caski cells [1]; co-incubated with glucose and manntiol (100 to 300 mM) 1 h, then TAT-FITC 1 h at 37°C, fluorescence quantitation (Figure 3B)): improved
TAT-FITC uptake with glucose and sucrose combination (Caski cells [1]; co-incubated with glucose and sucrose (100 to 300 mM) 1 h, then TAT-FITC 1 h at 37°C, fluorescence quantitation (Figure 3A)): improved
TAT-FITC uptake with GSM combination (Caski cells [1]; co-incubated with glucose, sucrose and manntiol (50 to 300 mM) 1 h, then TAT-FITC 1 h at 37°C, fluorescence quantitation (Figure 3D)): increasing as the concentration gradient
TAT-FITC uptake with sucrose and manntiol combination (Caski cells [1]; co-incubated with sucrose and manntiol (100 to 300 mM) 1 h, then TAT-FITC 1 h at 37°C, fluorescence quantitation (Figure 3C)): improved
TAT penetration enhancement, dose ranging (Caski cells [1]; glucose, sucrose, manntiol from 200 to 600 mM, lysate fluorescence 494/518 nm per mg protein (Figure 2B)): dependent on the concentration of glucose, sucrose and manntiol
TAT-FITC penetration efficiency in the presence of glycerol and glycine (Caski cells [1]; [4]): not observed
intracellular delivery efficiency of TAT-FITC with NH4Cl (Caski cells [1]; lysosomotrophic neutralizing agent NH4Cl, in the presence of GSM combination (Figure 7D)): significantly decreased
intracellular delivery efficiency of TAT-FITC with NaN3 (Caski cells [1]; metabolic inhibitor NaN3, in the presence of GSM combination (Figure 7C)): significantly decreased
TAT penetration efficiency with serum (Caski cells [1]; with vs without 10% fetal bovine serum (FBS), GSM combination (Figure 7A)): remains decreased

Reference: paper PMC5342692, “Hyperosmotic treatment synergistically boost efficiency of cell-permeable peptides” (Oncotarget, 2016)
